Values after ≈ are worked out from the molar mass of the structure shown. Values joined by “and” are separate entries in the source; they are usually repeats but may differ in a detail not shown here. Identical values can stand only once. “Also recorded” adds a separate entry of the source. Like-named read-outs stand apart in the source and are kept apart here.
Legend:
[1] = target: T1, KpUGM (Klebsiella pneumoniae, UniProt Q48485); format: biochemical; details: for effect of detergent on KpUGM inhibition: presence and absence of 0.025% Tween 80; for Ki: Lineweaver-Burk analysis, competitive inhibition
T1 construct: His-tag; made in house; host or cells: E. coli BL21(DE3)
Experimental: Anal Biochem, 1996: p. […] J Med Chem, 2002. 45(8): p. 1712-22] we repeated the assay in the presence of detergent (0.025% Tween 80).
(§1) Enzymatic activity of recombinant UGM was monitored using an HPLC-based assay [Wesener et al., 2013; Lee et al. 1996; Zhang, Q. and H.-w. […] J. Amer. Chem. Soc., 2000. 122(38): p. 9065-9070]. Reactions were performed in duplicate at 22° C. in 50 mM NaH2PO4 buffer (pH 7) with 20 nM enzyme and 20 mM fresh sodium dithionite. Small molecules were added from DMSO stocks to a final concentration of 1% DMSO. Concentration of UDP-Galf [Marlow, A. L. and L. L. Kiessling, Improved Chemical Synthesis of UDP-Galactofuranose. Org Lett, 2001. 3(16): p. 2517-2519] was held constant at the Km of the UGM homolog being analyzed, except for generation of Lineweaver-Burk plots. Reaction time and substrate concentration were varied for Lineweaver-Burk analysis, and each condition was tested in triplicate. Quenched reactions were run through a CarboPac PA-100 column (Thermo Scientific) on an Agilent 1260 Infinity HPLC using an isocratic elution of 200 mM ammonium acetate (pH 8) to separate substrate and product peaks.

[2] = target: T1, KpUGM; assay: biochemical; format: binding; details: for Kd: probe displacement in competitive-binding FP assay
Experimental: A fluorescence polarization assay was used to measure ligand binding to KpUGM [Soltero-Higgin et al. 2004, Carlson et al. 2006] Tumbling of the fluorescein-UDP conjugated probe was measured on a Tecan M1000 microplate reader, exciting with 470 nm light and monitoring emission at 525 nm. Each condition was tested in triplicate in the presence of 220 nM KpUGM and 23.3 nM of the probe. Data was fit with a one-site binding nonlinear regression in GraphPad Prism 6.

[3] = dynamic light scattering (DLS) detection of colloidal aggregation; format: physicochemical
Experimental: To evaluate aggregation by DLS compounds were diluted from concentrated stocks in DMSO into filtered 50 mM potassium phosphate, pH 7.0. The final DMSO concentration was 1%, and compound concentrations were usually 100 μM. Samples were run in duplicates. All measurements were made at room temperature using a DynaPro MS/X (Wyatt Technology) with a 55 mW laser at 826.6 nm. The laser power was 100%, and the detector angle was 90°.

[4] = target: T2, MtUGM (Mycobacterium tuberculosis, UniProt P9WIQ1); details: compound library screened against MtUGM; cited from earlier work
[5] = target: AmpC β-lactamase (Escherichia coli, UniProt P00811); format: biochemical; details: for inhibition of AmpC β-lactamase: 100 μM
Experimental: (§2) Compounds were tested for inhibition of Malate Dehydrogenase and AmpC β-lactamase as reported. Assays were performed in 50 mM potassium phosphate buffer, pH 7.0 at 25° C. For AmpC the molecules were mixed with buffer and CENTA substrate (50 μM; Tydock Pharma; Modena, Italy) to a final concentration of 1% DMSO (v/v). Reactions were initiated by addition of β-Lactamase (1 nM). Change in absorbance was monitored at 405 nm for 3 minutes. For Malate Dehydrogenase assay (MDH; Sigma Cat# M-7032), the molecule was mixed with buffer and 2 nM final concentration of the enzyme to a final concentration of 1% DMSO (v/v) and were incubated for five minutes. MDH reactions were started by adding substrates: Oxaloacetic acid (20 mM stock in buffer, prepared fresh daily; Sigma Cat# O4126) to a final concentration 200 μM and NADH (20 mM stock in buffer—prepare fresh daily; Sigma Cat# N-4505) to a final concentration 200 μM. Change in absorbance was monitored at […] for 2.5 minutes. Absorbance was monitored on an HP 8453 UV—visible spectrophotometer (Agilent, Technologies, Santa Clara, Calif.). The assays were performed in duplicate in methacrylate disposable cuvettes.

[6] = test system: B. subtilis; assay: disk diffusion assay; details: solid media, 100 nmol per disk
Experimental: (§3) 1-8], and M. smegmatis were grown, the former two species in LB broth and the later in 7H9 Middlebrook media. Cells were diluted to an OD600 of 0.2 in fresh media and spread (100 μL) onto LB agar plates. Following an hour of incubation at 37° C., sterile cloning disks (3.2 mm diameter, Scienceware) impregnated with 100 nmol of compound or 2 μL of DMSO were placed on the surface of the inoculated solid media. Cells were incubated at 37° C. overnight. Plates with M. smegmatis were incubated 3 additional days at room temperature. Zones of inhibition were measured from the outer edge of the cloning disk to the border of cell growth.

[7] = test system: B. subtilis; assay: broth microdilution, control strain without UGM; format: cell-based; details: control strain without UGM ortholog
[8] = test system: B strain E. coli; assay: broth microdilution, control strain without UGM; format: cell-based; details: control strain without UGM ortholog
[9] = test system: M. smegmatis; assay: microbroth dilution assay with alamar Blue readout; format: cell-based, Mycobacterium smegmatis; details: liquid culture
[10] = target: T3, Malate Dehydrogenase (MDH) (Thermus thermophilus, UniProt P10584); assay: aggregation counter screen, malate dehydrogenase inhibition; format: biochemical
T3 construct: purchased Sigma M-7032
Experimental: as §2

[11] = test system: HEK293 cells; assay: cytotoxicity assay (CellTiter-Glo); format: cell-based
Experimental: Four thousand HEK 293T cells were added to wells of a sterile 96-well plate in 99 μl DMEM with 10% FBS. The plate was incubated for 24 hours at 37° C. with 5% CO2 to allow cells to attach. Cells were then treated with serially diluted small molecules or a vehicle control. The final DMSO concentration was 1% in each well. After 24 hours of incubation, viability of the treated cells was analyzed using CellTiter-Glo Luminescent Cell Viability Assay (Promega). Viability readings were normalized to DMSO control wells.

[12] = test system: E. coli; assay: disk diffusion assay; format: cell-based; details: solid media, tested concentration
Experimental: J Bacteriol, 1989. 171(3): p. […] Cells were incubated at 37° C. overnight.

[13] = test system: M. smegmatis; assay: disk diffusion assay; details: solid media, 100 nmol per disk
Experimental: as §3

[14] = target: T2, MtUGM; assay: HPLC-based UGM activity assay, homolog specificity; format: biochemical; details: 100 μM compound
[15] = target: T4, CdUGM (Corynebacterium diphtheriae, UniProt Q6NER4); assay: HPLC-based UGM activity assay, homolog specificity; format: biochemical, C. diphtheriae; details: 100 μM compound
T4 construct: Open reading frame coding for residue 18-404 of CdUGM was amplified; His-tag with TEV cleavage site (N); made in house; host or cells: Escherichia coli ER2523
Experimental: The specificity of in vitro UGM inhibition was assessed using purified recombinant UGM homologs. MtUGM and C. diptheriae UGM (CdUGM) share about 43% sequence identity with KpUGM, and 76% identity with each other. However, active site residues are highly conserved between the homologs. […] This trend was consistent for other analogs from this series (FIG. 14).
as §1

AmpC β-lactamase, sequence (P00811 20-377): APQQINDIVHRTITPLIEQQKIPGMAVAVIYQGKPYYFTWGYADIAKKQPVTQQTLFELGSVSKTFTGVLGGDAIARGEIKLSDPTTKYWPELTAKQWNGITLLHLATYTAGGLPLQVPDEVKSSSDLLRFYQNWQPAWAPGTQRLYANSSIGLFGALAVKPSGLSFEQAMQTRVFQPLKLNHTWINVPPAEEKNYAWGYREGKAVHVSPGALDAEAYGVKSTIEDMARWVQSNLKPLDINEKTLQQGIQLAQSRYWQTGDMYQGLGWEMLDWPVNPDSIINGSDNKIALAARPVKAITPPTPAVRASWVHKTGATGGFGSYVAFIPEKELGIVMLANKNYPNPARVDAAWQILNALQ
T1 sequence (Q48485 24-384): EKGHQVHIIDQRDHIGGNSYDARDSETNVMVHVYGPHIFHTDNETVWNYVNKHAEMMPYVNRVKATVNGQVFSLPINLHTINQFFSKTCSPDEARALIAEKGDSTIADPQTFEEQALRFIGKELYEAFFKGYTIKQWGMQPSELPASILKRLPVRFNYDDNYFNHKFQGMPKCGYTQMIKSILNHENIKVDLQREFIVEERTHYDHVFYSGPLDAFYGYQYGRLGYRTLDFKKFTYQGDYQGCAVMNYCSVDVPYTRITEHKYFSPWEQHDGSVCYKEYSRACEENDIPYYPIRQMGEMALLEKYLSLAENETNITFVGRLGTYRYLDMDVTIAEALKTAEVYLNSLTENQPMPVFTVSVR
T3 sequence (P10584 whole entry): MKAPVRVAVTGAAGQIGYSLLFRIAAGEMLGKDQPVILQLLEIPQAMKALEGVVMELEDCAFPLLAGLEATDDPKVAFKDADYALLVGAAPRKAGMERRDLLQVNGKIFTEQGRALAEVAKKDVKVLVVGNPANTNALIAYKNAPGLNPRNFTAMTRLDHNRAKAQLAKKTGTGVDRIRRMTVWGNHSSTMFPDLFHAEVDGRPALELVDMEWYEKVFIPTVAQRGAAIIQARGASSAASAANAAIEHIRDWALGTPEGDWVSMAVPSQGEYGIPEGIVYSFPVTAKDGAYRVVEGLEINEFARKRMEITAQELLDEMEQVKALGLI
T2 sequence (P9WIQ1 whole entry): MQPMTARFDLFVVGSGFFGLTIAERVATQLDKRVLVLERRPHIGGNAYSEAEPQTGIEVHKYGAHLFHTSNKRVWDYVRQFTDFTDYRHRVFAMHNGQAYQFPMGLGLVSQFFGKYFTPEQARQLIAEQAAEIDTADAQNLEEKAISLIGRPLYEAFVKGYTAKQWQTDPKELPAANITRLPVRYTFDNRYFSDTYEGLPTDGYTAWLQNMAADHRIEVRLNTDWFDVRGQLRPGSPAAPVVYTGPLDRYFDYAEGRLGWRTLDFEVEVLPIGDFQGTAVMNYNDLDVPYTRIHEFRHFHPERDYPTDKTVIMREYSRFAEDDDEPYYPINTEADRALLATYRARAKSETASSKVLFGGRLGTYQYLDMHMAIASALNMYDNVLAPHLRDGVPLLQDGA
T4 sequence (Q6NER4 entry or part of it): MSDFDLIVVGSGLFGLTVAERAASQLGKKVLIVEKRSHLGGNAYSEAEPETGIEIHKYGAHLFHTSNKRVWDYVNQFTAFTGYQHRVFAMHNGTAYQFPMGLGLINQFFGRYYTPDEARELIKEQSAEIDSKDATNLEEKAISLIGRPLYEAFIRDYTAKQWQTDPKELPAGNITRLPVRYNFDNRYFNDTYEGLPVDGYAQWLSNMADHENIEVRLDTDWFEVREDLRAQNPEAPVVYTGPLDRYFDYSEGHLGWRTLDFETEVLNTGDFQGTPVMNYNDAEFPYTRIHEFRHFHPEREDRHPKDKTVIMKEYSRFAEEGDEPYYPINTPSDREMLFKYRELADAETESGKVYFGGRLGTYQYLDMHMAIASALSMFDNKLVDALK

SMILES: Cc1cc(-c2csc(NC(C)c3ccccc3)n2)c(C)n1CCC(=O)O (stereo not shown) [Compound 14]
- KpUGM inhibition compared with lead compound 10 ([1]; in vitro, dose-dependent): improved KpUGM inhibition; also recorded: increased dose-dependent KpUGM inhibition
- binding compared with compound 10 ([2]; FP assay): slightly tighter binding than compound 10
- Kd [2]: 4.5 µM

SMILES: Cc1ccc(C2=Nn3c(COc4ccc(Cl)cc4)nnc3SC2CC(=O)O)cc1 (stereo not shown) [Compound 24]
- colloidal aggregation by DLS ([3]; 100 μM): form colloidal aggregates; also recorded: do form colloids
- colloidal aggregation by DLS ([3]; high concentrations): show aggregation
- detection as hit in HTS [4]: not detected by HTS
- Kd [2]: 9 µM and 9.2 µM

SMILES: C=CCNc1nc(-c2cc(C)n(CCC(=O)O)c2C)cs1 [Compound 10]
- colloidal aggregation by DLS ([3]; 100 μM): do not form detectable colloids; also recorded: no sign of colloidal aggregation
- effect of detergent on KpUGM inhibition ([1]; 100 μM compound): insensitive to detergent
- inhibition of AmpC β-lactamase [5]: do not display any inhibition
- Kd [2]: 9 µM and 6 µM

SMILES: O=C(O)CC1Sc2nnc(Cc3ccc(Br)cc3)n2N=C1c1ccc(Cl)cc1 (stereo not shown) [Compound 30]
- colloidal aggregation by DLS ([3]; 10 μM): does not aggregate
- colloidal aggregation by DLS ([3]; 100 μM): forms colloidal aggregates; also recorded: do form colloids
- colloidal aggregation by DLS ([3]; high concentrations): show aggregation
- zone of growth inhibition [6]: significantly smaller than that observed for M. smegmatis
- KpUGM activity in presence of compound ([1]; 50 μM compound): no measurable activity
- KpUGM activity in presence of compound ([1]; 100 μM compound): no measurable activity
- selectivity between UGM homologs ([1]; KpUGM vs MtUGM and CdUGM): selective for KpUGM over MtUGM and CdUGM
- Ki [1]: 1.1 µM
- potency relative to compound 22 in vitro ([1]; from Ki values): about 5 fold
- MIC [7]: 500 µM (≈ 239 µg/mL)
- MIC [8]: > 500 µM
- MIC ([9]; 46 hours of growth, alamar blue): 20 µM (≈ 9.56 µg/mL)
- inhibition of AmpC ([5]; high concentrations): non-specific inhibition
- Kd [2]: 4.5 µM and 4.7 µM
- effect of detergent on MDH inhibition ([10]; addition of detergent): fully rescued by the addition of detergent; also recorded: reversible by the addition of detergent
- IC50 ([10]; full dose response curve, no detergent): 55.7 µM
- inhibition of MDH ([10]; high concentrations): non-specific inhibition
- difference between LD50 and MIC for M. smegmatis [11]: 5 fold
- cellular toxicity ([11]; HEK293 cells): only mildly toxic
- LD50 ([11]; HEK293 cells, 24 hours): ~100 µM
- cell-killing in disk diffusion [12]: No cell-killing
- zone of growth inhibition, comparison within series [13]: outperformed all other compounds of the series

SMILES: O=C(O)CC1Sc2nnc(-c3ccco3)n2N=C1c1ccccc1 (stereo not shown) [Compound 6]
- colloidal aggregation by DLS ([3]; 100 μM): do not form detectable colloids; also recorded: do not aggregate; also recorded: no sign of colloidal aggregation
- effect of detergent on KpUGM inhibition ([1]; 100 μM compound): insensitive to detergent
- Ki [1]: 78 µM
- inhibition of AmpC β-lactamase [5]: do not display any inhibition
- Kd [2]: 62 µM and 43 µM
- cellular toxicity ([11]; HEK293 cells): no significant cellular toxicity

SMILES: O=C(O)CC1Sc2nnc(Cc3ccc(F)cc3)n2N=C1c1ccccc1 (stereo not shown) [Compound 19]
- colloidal aggregation by DLS ([3]; 100 μM): form colloidal aggregates; also recorded: do form colloids
- colloidal aggregation by DLS ([3]; high concentrations): show aggregation
- Kd [2]: 15 µM

SMILES: O=C(O)CCC(=O)N1N=C(c2ccccc2)CC1c1cccs1 (stereo not shown) [Compound 3]
- detection as hit in HTS [4]: not detected by HTS

SMILES: O=C(O)CC1Sc2nnc(-c3cccs3)n2N=C1c1ccc(Cl)cc1 (stereo not shown) [Compound 22]
- colloidal aggregation by DLS ([3]; 100 μM): did not show any aggregation; also recorded: do not aggregate; also recorded: no sign of colloidal aggregation
- Ki [1]: 7 µM
- M. smegmatis growth repression ([9]; tested concentrations): no M. smegmatis growth repression
- inhibition of MtUGM [14]: 19%
- inhibition of CdUGM [15]: 38%
- Kd [2]: 9 µM and 9.2 µM

From US10118934B2 (Wisconsin Alumni Research Foundation, priority 2014, dated 2018)
